What was measured:
Androgen receptor = biological target: T1, Androgen receptor (Homo sapiens, UniProt P10275); assay: Agonist activity at AR (unknown origin) expressed in human LNCaP cells incubated for 20 hrs by luciferase reporter gene assay; assay type: cell-based
T1 sequence (P10275 whole entry): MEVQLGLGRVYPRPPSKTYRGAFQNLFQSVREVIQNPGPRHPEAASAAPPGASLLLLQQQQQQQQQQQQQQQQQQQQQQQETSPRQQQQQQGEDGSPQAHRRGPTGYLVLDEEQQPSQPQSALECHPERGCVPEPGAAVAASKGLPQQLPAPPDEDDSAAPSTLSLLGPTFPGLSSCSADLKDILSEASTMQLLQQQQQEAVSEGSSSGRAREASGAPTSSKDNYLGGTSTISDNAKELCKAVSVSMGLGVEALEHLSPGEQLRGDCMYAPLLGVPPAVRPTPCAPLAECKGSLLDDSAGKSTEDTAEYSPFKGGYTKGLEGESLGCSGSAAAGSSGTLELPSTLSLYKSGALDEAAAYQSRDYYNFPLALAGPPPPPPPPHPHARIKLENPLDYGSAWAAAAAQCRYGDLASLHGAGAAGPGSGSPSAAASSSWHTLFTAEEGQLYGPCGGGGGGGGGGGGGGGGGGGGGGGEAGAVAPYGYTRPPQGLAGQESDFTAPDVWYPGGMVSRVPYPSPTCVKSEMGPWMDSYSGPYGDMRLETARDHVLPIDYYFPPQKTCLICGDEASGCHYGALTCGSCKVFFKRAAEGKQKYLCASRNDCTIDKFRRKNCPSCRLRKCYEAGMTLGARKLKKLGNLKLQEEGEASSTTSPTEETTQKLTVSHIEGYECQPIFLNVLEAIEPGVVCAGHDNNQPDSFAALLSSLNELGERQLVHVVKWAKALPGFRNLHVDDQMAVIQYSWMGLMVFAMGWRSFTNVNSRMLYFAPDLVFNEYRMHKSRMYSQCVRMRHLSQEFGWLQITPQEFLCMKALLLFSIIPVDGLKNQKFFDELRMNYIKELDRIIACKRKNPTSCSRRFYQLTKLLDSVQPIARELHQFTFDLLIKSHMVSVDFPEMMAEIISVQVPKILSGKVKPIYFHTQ

[1] = Oral bioavailability in rat at 5 mg/kg; assay type: ADME, organism-based; settings: in vivo
[2] = Clearance in mouse at 0.5 mg/kg, iv; assay type: ADME, organism-based; settings: in vivo
[3] = Oral bioavailability in mini pig at 10 mg/kg; assay type: ADME, organism-based, Sus scrofa; settings: in vivo
[4] = Cmax in mouse at 5 mg/kg, po; assay type: ADME, organism-based; parameters: dose 5 mg/kg, route oral; settings: in vivo
Estrogen receptor = biological target: T2, Estrogen receptor (Homo sapiens, UniProt P03372); assay: Binding affinity to untagged human recombinant full length ERalpha expressed in insect cells up to 1 uM by Fluormone ES2 Green displacement based assay
T2 sequence (P03372 whole entry): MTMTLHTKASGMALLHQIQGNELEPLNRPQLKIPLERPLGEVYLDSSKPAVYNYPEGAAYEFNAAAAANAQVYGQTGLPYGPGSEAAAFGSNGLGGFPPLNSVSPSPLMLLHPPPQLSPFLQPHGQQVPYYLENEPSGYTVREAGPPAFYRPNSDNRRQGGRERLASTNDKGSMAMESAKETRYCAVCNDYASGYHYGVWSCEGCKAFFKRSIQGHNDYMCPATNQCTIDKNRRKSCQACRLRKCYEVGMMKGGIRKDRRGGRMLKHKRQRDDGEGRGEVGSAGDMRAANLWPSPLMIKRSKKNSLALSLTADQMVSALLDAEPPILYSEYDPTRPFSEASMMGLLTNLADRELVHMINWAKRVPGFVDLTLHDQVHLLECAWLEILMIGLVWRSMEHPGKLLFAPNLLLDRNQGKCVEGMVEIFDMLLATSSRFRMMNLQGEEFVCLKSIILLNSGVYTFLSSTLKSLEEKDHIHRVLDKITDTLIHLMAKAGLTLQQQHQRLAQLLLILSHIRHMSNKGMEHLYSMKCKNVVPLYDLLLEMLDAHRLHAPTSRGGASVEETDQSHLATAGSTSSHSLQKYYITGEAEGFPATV

Glucocorticoid receptor = biological target: T3, Glucocorticoid receptor (Rattus norvegicus, UniProt P06536); assay: Antagonist activity at GR in rat PBMC assessed as reduction in dexamethasone-induced FKBP5 gene expression incubated for 24 hrs by RT-qPCR method; assay type: cell-based
T3 sequence (P06536 whole entry): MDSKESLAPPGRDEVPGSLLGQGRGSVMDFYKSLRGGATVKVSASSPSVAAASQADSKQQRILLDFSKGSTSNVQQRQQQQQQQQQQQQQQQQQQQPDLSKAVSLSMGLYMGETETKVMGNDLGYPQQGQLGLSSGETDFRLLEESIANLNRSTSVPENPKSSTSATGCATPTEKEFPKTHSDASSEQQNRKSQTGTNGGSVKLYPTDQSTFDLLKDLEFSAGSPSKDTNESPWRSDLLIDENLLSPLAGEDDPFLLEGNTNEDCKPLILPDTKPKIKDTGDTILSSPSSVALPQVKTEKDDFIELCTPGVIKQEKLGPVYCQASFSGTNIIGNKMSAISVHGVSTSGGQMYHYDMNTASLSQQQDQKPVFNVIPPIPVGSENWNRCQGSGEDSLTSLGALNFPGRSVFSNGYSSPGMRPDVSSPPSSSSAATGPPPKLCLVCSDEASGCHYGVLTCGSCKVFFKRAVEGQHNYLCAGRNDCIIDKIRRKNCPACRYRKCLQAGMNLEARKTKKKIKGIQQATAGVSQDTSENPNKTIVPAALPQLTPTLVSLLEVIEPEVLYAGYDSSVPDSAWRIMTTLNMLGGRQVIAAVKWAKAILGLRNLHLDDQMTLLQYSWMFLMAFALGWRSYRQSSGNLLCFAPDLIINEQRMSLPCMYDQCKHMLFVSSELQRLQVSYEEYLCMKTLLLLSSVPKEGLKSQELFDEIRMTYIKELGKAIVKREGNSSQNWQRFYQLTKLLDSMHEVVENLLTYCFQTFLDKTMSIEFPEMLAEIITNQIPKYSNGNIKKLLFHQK

CC(C)N(C)c1ccc([C@H]2C[C@@]3(C)[C@@H](CC[C@@]3(O)C#CC(C)(C)C)[C@@H]3CCC4=CC(=O)CC[C@@H]4[C@H]32)cc1
EC50 (Androgen receptor): > 2.5 µM
bioavailability [1]: 24%
clearance [2]: 1.63 L/h/kg
bioavailability [3]: 20%
Cmax [4]: 0.274 µg/mL
Activity (Estrogen receptor): Not Active
IC50 (Glucocorticoid receptor): 0.0456 µM
